From patent US8956996B2, “Method for reducing nitrous oxide emission from soils” (BASF SE, priority 2009, dated 2015)

Legend:
[1] = system: N2O emission from soil; test: Loss of nitrate and ammonium nitrogen in LiHof soil, pyraclostrobin and boscalid (Example 3); details: for Effect on N2O emission from soil (in words): LiHof soil, fertilizer applied 1 day after compound (A); for Loss of NO3-N + NH4-N in mg N/10 g soil in 48 h: soil type LiHof, pyraclostrobin 250 g/ha, boscalid 2.33 g/L, fertilizer 1 day after compound (A), UTC 0.52
[2] = system: N2O emission from soil; test: Loss of nitrate and ammonium nitrogen in soil samples, Conway method, as indirect measure of N2O produced (Example 2); details: for Loss of NO3-N + NH4-N in mg N/10 g soil in 48 h: fertilizer 1 day after compound (A)
[3] = system: N2O emission from soils; test: Greenhouse trial: N2O emission from potted field soil planted with summer wheat (Example 4); type: in vivo; details: for Mean mg N2O-N/m^2: 4 weeks
[4] = system: N2O emission from soils; test: N2O emission from potted corn after pyraclostrobin seed treatment, NPK fertilizer applied 10 days later (Example 1); type: in vivo, Zea mays

| Compound | Effect on N2O emission from soil (in words) [1] | Loss of NO3-N + NH4-N in mg N/10 g soil in 48 h [1] | Loss of NO3-N + NH4-N in mg N/10 g soil in 48 h ([2]; soil type LiHof, UTC 0.54) | Loss of NO3-N + NH4-N in mg N/10 g soil in 48 h ([2]; soil type Sp 2.1, UTC 0.16) | Loss of NO3-N + NH4-N in mg N/10 g soil in 48 h ([2]; soil type Sp 2.2, UTC 0.19) | Loss of NO3-N + NH4-N in mg N/10 g soil in 48 h ([2]; soil type Sp 2.3, UTC 0.38) | Loss of NO3-N + NH4-N in mg N/10 g soil in 48 h ([2]; soil type Sp 2.4, UTC 0.37) | Loss of NO3-N + NH4-N in mg N/10 g soil in 48 h ([2]; soil type Sp 5M, UTC 0.27) | Loss of NO3-N + NH4-N in mg N/10 g soil in 48 h ([2]; soil type Sp 6S, UTC 0.48) | Effect on N2O emission from soil (in words) ([2]; various types of soil, fertilizer applied 1 day after compound (A)) | Effect on N2O emission from soils (in words) ([3]; combined application of compound (A) and compound (B)) | Mean mg N2O-N/m^2 ([3]; pyraclostrobin 250 g/ha 8 days before the application of the fertilizer (ammonium nitrate 100 kg/ha)) | Mean mg N2O-N/m^2 ([3]; pyraclostrobin 250 g/ha together with the application of the fertilizer (ammonium nitrate 100 kg/ha)) | Effect on N2O emission from soils (in words) ([3]; pyraclostrobin and ammonium nitrate with time lag of 8 days, compared to fertilizer alone or joint application) | N2O increase over ambient ([4]; seed treatment 5 g/100 kg seeds, 0.3% NPK fertilizer HaKaPhos Blue applied on day 10, peak value on day 2 of three day measurement, N = 14, UTC 190) | Effect on N2O emission from soils (in words) ([4]; seed treatment, fertilizer applied 10 days after compound (A)) |
| --- | --- | --- | --- | --- | --- | --- | --- | --- | --- | --- | --- | --- | --- | --- | --- | --- |
| O=C(Nc1ccccc1-c1ccc(Cl)cc1)c1cccnc1Cl [Boscalid, boscalid] | significantly reduced the N2O emission from soil | 0.35 mg N/10 g soil |  |  |  |  |  |  |  |  |  |  |  |  |  |  |
| COC(=O)N(OC)c1ccccc1COc1ccn(-c2ccc(Cl)cc2)n1 [Pyraclostrobin, pyraclostrobin] | significantly reduced the N2O emission from soil | 0.09 mg N/10 g soil | 0.06 mg N/10 g soil | 0.03 mg N/10 g soil | 0.02 mg N/10 g soil | 0.18 mg N/10 g soil | 0.13 mg N/10 g soil | 0.10 mg N/10 g soil | 0.21 mg N/10 g soil | significantly reduce the N2O emission from soil | does not result in a reduction of N2O emission from soils | 100.9 mg N2O-N/m^2 | 314.9 mg N2O-N/m^2 | significantly reduced | 107 ppbv/h | significantly reduce the N2O emission from soils |
